{"source": "patent US6569898B2", "about": "“Use of (Z) -2-cyano-3-hydroxy-but-2-enoic acid-(4′-trifluoromethylphenyl)-amide for treating multiple sclerosis” (Aventis Pharmaceuticals Inc., priority 2001, dated 2003)", "origin": "cited, not measured here", "key": {"[1]": {"biological_target": "dihydrooate dehydrogenase (Homo sapiens, UniProt Q02127)", "sequence (Q02127 whole entry)": "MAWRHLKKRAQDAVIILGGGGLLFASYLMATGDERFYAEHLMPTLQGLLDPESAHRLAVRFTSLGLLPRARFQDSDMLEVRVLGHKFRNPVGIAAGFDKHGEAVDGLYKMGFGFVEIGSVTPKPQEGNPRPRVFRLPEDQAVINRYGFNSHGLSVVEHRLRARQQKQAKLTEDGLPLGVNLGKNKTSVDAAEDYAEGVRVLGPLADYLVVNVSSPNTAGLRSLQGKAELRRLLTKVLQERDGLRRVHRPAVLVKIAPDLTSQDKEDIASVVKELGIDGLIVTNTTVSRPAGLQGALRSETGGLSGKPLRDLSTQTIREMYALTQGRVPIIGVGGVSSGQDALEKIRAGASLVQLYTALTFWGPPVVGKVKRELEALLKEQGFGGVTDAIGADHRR", "conditions": "enzyme essential for the synthesis of pyrimidines"}, "[2]": {"test_system": "immune cells and cell lines"}}, "data": [{"smiles": "C/C(O)=C(\\C#N)C(=O)Nc1ccc(C(F)(F)F)cc1", "note": "[Teriflunomide, (Z)-2-cyano-3-hydroxy-but-2-enoic acid-(4′-trifluoromethylphenyl)-amide]", "values": [{"measurement": "inhibition of the enzyme dihydrooate dehydrogenase", "setting": "[1]", "value": "inhibits"}, {"measurement": "antiproliferative effects on a wide variety of immune cells and cell lines", "setting": "[2]", "value": "antiproliferative effects"}]}]}
